SMILES strings stand for the structures.

The assay concerns the target T1, Recombinant human GR (Homo sapiens, UniProt P04150).
T1 construct: purchased Invitrogen P2816
T1 sequence (P04150 1-777): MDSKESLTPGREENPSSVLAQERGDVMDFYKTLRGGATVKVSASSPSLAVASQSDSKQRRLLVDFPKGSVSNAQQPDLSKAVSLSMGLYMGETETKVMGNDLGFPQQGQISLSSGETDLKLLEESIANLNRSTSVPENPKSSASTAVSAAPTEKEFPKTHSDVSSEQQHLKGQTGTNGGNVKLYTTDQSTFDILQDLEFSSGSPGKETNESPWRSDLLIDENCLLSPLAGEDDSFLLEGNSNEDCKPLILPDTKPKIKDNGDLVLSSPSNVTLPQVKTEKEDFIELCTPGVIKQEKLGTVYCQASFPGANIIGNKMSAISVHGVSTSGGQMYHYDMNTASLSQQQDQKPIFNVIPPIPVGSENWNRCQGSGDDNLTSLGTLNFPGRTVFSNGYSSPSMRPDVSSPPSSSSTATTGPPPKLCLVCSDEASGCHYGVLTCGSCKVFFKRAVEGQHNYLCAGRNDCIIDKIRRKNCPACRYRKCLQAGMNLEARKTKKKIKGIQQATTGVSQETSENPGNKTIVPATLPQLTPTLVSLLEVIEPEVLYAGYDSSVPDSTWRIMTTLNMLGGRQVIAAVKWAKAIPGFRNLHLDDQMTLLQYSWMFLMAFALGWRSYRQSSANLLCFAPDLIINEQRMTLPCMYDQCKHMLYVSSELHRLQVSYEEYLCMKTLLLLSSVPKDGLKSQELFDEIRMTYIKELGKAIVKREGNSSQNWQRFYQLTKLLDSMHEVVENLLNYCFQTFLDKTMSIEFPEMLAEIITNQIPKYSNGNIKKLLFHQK
The assay can be described thus: GR competitor assay (receptor competitor assay by fluorescence polarization, Invitrogen kit P2816). The settings on record: 20 μM test compound solution (10 μL per well plus 5 μL 4×GS1 and 5 μL 4×GR); relative to 2 mM dexamethasone positive control; ratios of 100% or more are indicated by 100%; read-out: GR Binding ratio (%). The protocol:
In order to evaluate a binding activity to GR, a receptor competitor assay was carried out by a fluorescence polarization method. In the assay, a GR competitor assay kit (manufactured by Invitrogen, cat No. P2816) was used, and a procedure was carried out according to the protocol attached to the kit. Hereinafter, the specific method will be described.
GR screening buffer: A buffer containing 10 mM potassium phosphate (pH 7.4), 20 mM sodium molybdate (Na2MoO4), 0.1 mM ethylene diamine tetraacetic acid (EDTA), 5 mM dithiothreitol (DTT), 0.1 mM stabilizing peptide and 2% dimethylsulfoxide was prepared.
4×GS1 solution: Fluormone™ GS1, which is a fluorescent glucocorticoid ligand, was diluted with GR screening buffer, whereby a 4 nM solution was prepared.
4×GR solution: Recombinant human GR was diluted with GR screening buffer, whereby a 16 nM solution was prepared.
After a test compound was dissolved in dimethylsulfoxide, the resulting solution was diluted with GR screening buffer, whereby a 20 μM test compound solution was prepared.
1) The test compound solution was added in an amount of 10 μL into each well of a 384-well plate, and then, 4×GS1 solution and 4×GR solution were added in an amount of 5 μL into each well, respectively.
2) The plate was incubated in a dark place at room temperature for 2 to 4 hours.
3) By using a multimode plate reader, Analyst™ HT (manufactured by LJL Biosystems), fluorescence polarization of each well was measured. As the blank, a well containing GR screening buffer in place of the test compound and 4×GS1 solution was used.
4) The same procedure as that in the above 1) to 3) was carried out except that GR screening buffer was used in place of the test compound solution, and the obtained result was taken as the negative control.
5) The same procedure as that in the above 1) to 3) was carried out except that 2 mM dexamethasone was used in place of the test compound solution, and the obtained result was taken as the positive control.
A GR binding ratio (%) was calculated from the following equation. GR binding ratio(%)=100×[1−(fluorescence polarization of test compound solution−fluorescence polarization of positive control solution)/(fluorescence polarization of negative control solution fluorescence polarization of positive control solution)] (Test Results and Discussion)

Regarding `COc1ccc(C(=O)OCc2c(-c3ccc(OC(=O)c4ccccc4Cl)cc3OC)ccc3c2C(C)=CC(C)(C)N3)cc1` [Compound 1-35, 6-[4-(2-Chlorobenzoyloxy)-2-methoxyphenyl]-5-(4-methoxybenzoyloxymethyl)-2,2,4-trimethyl-1,2-dihydroquinoline], the inhibition at 20 µM (stock) was 100%.
Same read-out and setting: the figure for `COc1cc(OC(=O)c2cccnc2)ccc1-c1ccc2c(c1COC(=O)c1ccc(C)cc1)C(C)=CC(C)(C)N2` [Compound 1-8, 5-(4-Methylbenzoyloxymethyl)-6-[2-methoxy-4-(pyridin-3-ylcarbonyloxy)phenyl]-2,2,4-trimethyl-1,2-dihydroquinoline] is 100%.
With `COc1cc(OC(=O)C(C)C)ccc1-c1ccc2c(c1COC(=O)c1ccc(C)s1)C(C)=CC(C)(C)N2` [Compound 1-43, 6-(4-Isopropylcarbonyloxy-2-methoxyphenyl)-5-(5-methylthiophen-2-ylcarbonyloxymethyl)-2,2,4-trimethyl-1,2-dihydroquinoline], the inhibition at 20 µM (stock) was 100%.
Take `COc1cc(OC(=O)c2ccccc2Cl)ccc1-c1ccc2c(c1COC(=O)c1ccc(C)s1)C(C)=CC(C)(C)N2` [Compound 1-15, 6-[4-(2-Chlorobenzoyloxy)-2-methoxyphenyl]-5-(5-methylthiophen-2-ylcarbonyloxymethyl)-2,2,4-trimethyl-1,2-dihydroquinoline]: the inhibition at 20 µM (stock) came out at 91%.
Turning to `COc1cc(OC(=O)Nc2cccnc2)ccc1-c1ccc2c(c1COC(=O)c1ccc(C)s1)C(C)=CC(C)(C)N2` [Compound 4-1, 6-[2-Methoxy-4-(pyridin-3-ylaminocarbonyloxy)phenyl]-5-(5-methylthiophen-2-ylcarbonyloxymethyl)-2,2,4-trim ethyl-1,2-dihydroquinoline], the inhibition at 20 µM turned out to be 100%.
`COc1cc(OC(=O)c2occc2C)ccc1-c1ccc2c(c1COC(=O)c1ccc(C)s1)C(C)=CC(C)(C)N2` [Compound 1-50, 6-[2-Methoxy-4-(3-methylfuran-2-ylcarbonyloxy)phenyl]-5-(5-methylthiophen-2-ylcarbonyloxymethyl)-2,2,4-trimethyl-1,2-dihydroquinoline]: the inhibition at 20 µM (stock) stood at 90%.
For `COc1cc(OC(=O)c2ccco2)ccc1-c1ccc2c(c1COC(=O)c1ccc(C)s1)C(C)=CC(C)(C)N2` [Compound 1-14, 6-[4-(Furan-2-ylcarbonyloxy)-2-methoxyphenyl]-5-(5-methylthiophen-2-ylcarbonyloxymethyl)-2,2,4-trimethyl-1,2-dihydroquinoline], the inhibition at 20 µM (stock) is 96%.
On to `COc1cc(OS(=O)(=O)C2CC2)ccc1-c1ccc2c(c1COC(=O)c1ccc(C)s1)C(C)=CC(C)(C)N2` [Compound 2-9, 6-(4-Cyclopropylsulfonyloxy-2-methoxyphenyl)-5-(5-methylthiophen-2-ylcarbonyloxymethyl)-2,2,4-trimethyl-1,2-dihydroquinoline], for which the inhibition at 20 µM (stock) is 100%.
As for `COc1cc(OS(C)(=O)=O)ccc1-c1ccc2c(c1COC(=O)c1ccc(C)s1)C(C)=CC(C)(C)N2` [Compound 2-6, 6-(2-Methoxy-4-methylsulfonyloxyphenyl)-5-(5-methylthiophen-2-ylcarbonyloxymethyl)-2,2,4-trimethyl-1,2-dihydroquinoline], the inhibition at 20 µM (stock) was found to be 100%.
Turning to `COc1cc(OC(=O)c2cccc(Cl)c2)ccc1-c1ccc2c(c1COC(=O)c1ccc(C)s1)C(C)=CC(C)(C)N2` [Compound 1-16, 6-[4-(3-Chlorobenzoyloxy)-2-methoxyphenyl]-5-(5-methylthiophen-2-ylcarbonyloxymethyl)-2,2,4-trimethyl-1,2-dihydroquinoline], the inhibition at 20 µM (stock) came to 85%.
Still for that read-out and setting: the figure for `COc1cc(OC(=O)c2ccc(C)cc2)ccc1-c1ccc2c(c1COC(=O)c1ccc(C)s1)C(C)=CC(C)(C)N2` [Compound 1-47, 6-[2-Methoxy-4-(4-methylbenzoyloxy)phenyl]-5-(5-methylthiophen-2-ylcarbonyloxymethyl)-2,2,4-trimethyl-1,2-dihydroquinoline] is 96%.

The values are drawn from patent publication US8563551B2, “Method for preventing or treating a disease related to the glucocorticoid receptor” (Santen Pharmaceutical Co., Ltd., priority 2006, dated 2013).
